Values of other authors in publication PMC11272821, “Mechanistic safety assessment via multi-omic characterisation of systemic pathway perturbations following in vivo MAT2A inhibition” (Archives of Toxicology, 2024).

Set-up: method as in Agios Pharmaceuticals, AACR-NCI-EORTC 2019
Conditions: ref Agios Pharmaceuticals, AACR-NCI-EORTC 2019, cited from earlier work

## COc1ccc(-c2c(Nc3ccccn3)[nH]c3c(C4=CCCCC4)c(-c4ccccc4)nn3c2=O)cc1 [AG-270]
Proposed result of UGT1A1 inhibition
  adverse finding in Phase 1 clinical trial: hyperbilirubinemia
  dose limiting toxicity in Phase 1 clinical trial: reversible, acute liver injury
